From patent publication US7960349B2 (Bristol-Myers Squibb Company, priority 2006, dated 2011)
Where a SMILES comes first, the peptide text is derived from it. [ ]: non-standard residue; d: D form. The star is where a group is joined. ξ: configuration not given here. Ala(6-(2-MePh)pyridin-3-yl) = Cc1ccccc1-c1ccc(C[C@H](N)C(=O)O)cn1; Phe(4-(2-Et-4-HO-Ph)) = CCc1cc(O)ccc1-c1ccc(C[C@H](N)C(=O)O)cc1; ξαMePhe(2-F) = CC(N)(Cc1ccccc1F)C(=O)O; ξαMeP = CC1(C(=O)O)CCCN1; Moc = COC(=O)*

Columns and labels:
Human GLP-1 Receptor = biological target: T1, Human GLP-1 Receptor (Homo sapiens, UniProt P43220); test: Cyclic AMP determination in CHO cells expressing human GLP-1 receptor; assay type: cell-based
T1 construct: Full-length human glucagon-like peptide 1 receptor was stably expressed in CHO-K1 cells; expressed in transfected cells; host or cells: CHO-K1 (clone CHO-GLP1R-19)
Protocol: (§1) CHO-GLP-1R-19 cells (20,000 in 100 μl of media) were plated into each well of a 96-well tissue culture microtiter plate and incubated overnight in a 5% CO2 atmosphere at 37° C. On the day of the assay, cells were washed once with 100 μl of phosphate-buffered saline (PBS). A Biomek 2000 was used to serially dilute all peptides prior to beginning the assay. Serial dilutions were carried out in 100% DMSO.
(§2) 50 μl of each cAMP standard was added by hand and 70 μl of mix reagent (Amersham cAMP SPA kit) was added using the multidrop. […] This standard curve was used to convert CPM to pmol of cAMP.
(§3) Cell plates and peptide plates were loaded onto the Platemate. The media was aspirated from the wells and discarded. 100 uL per well of the peptide/buffer mixture were then added from the peptide plates to initiate the assay. After 30 min. of incubation the peptide/buffer was removed and 50 uL of the lysis reagent 1 solution was added per well. The plate was kept for one hour at RT or overnight if refrigerated and sealed.
(§4) Dose dependence for Compounds was determined at half-log concentrations in duplicate. […] A standard curve was determined using known amounts of cyclic AMP. […] The data were analyzed by nonlinear regression curve fitting (4 parameter sigmoidal dose-response curve) to determine the EC50 of the compounds.

Mouse GLP-1 Receptor = biological target: T2, Mouse GLP-1 Receptor (Mus musculus, UniProt O35659); test: Stimulation of cAMP synthesis in CHO cells expressing mouse GLP-1 receptor; assay type: cell-based
T2 construct: expressed in transfected cells; host or cells: CHO cells
T2 sequence (O35659 22-463): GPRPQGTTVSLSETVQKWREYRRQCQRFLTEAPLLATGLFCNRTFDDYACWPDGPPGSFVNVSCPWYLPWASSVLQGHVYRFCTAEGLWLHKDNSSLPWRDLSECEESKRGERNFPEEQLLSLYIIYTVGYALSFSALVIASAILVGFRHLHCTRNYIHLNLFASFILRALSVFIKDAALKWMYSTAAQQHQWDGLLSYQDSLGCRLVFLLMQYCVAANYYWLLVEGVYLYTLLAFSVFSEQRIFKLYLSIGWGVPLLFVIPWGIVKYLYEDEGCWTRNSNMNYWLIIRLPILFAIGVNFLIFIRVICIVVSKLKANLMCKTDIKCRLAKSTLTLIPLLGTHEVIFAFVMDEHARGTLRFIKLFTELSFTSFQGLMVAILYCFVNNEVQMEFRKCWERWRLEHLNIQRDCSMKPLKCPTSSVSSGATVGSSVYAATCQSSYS
Protocol: as §1, §2, §3, §4

ob/ob mice = test: Intraperitoneal glucose tolerance test (ipGTT) in ob/ob mice after sc injection; assay type: in vivo, mouse
Protocol: (§5) Peptides were dissolved in an appropriate vehicle at a concentration in nmol/ml equivalent to the dose that was to be administered in nmol/kg so that each mouse would receive the same volume/weight of dosing solution. Male C57BL/6-ob/ob mice (10 weeks old) were randomized into groups of 6 mice per group based on fed plasma glucose and body weight. After an overnight fast, mice were weighed and placed in the experimental lab. After 30 min in the environment, the mice were bled via tail tip at −30 min and immediately injected subcutaneously (sc) with vehicle or the peptide dissolved in vehicle (0.1 ml solution/100 g body weight). At time 0 the mice were bled and then injected intraperitoneally with 50% glucose (2 g/kg) to initiate the intraperitoneal glucose tolerance test (ipGTT). The mice were bled 30, 60, 120 and 180 min after the glucose injection. Blood samples were drawn into potassium EDTA, placed on ice during the study and subsequently centrifuged for 10 min at 3000 rpm at 4° C. Plasma samples were diluted 11-fold for glucose analysis in the Cobas System. Another 5 μl plasma sample was diluted 5-fold with 20 μl of Sample Diluent (Insulin ELISA assay kit, Crystal Chem. Inc.) and stored at −20° C. for subsequent analysis using the Ultra Sensitive Mouse Insulin ELISA kit (Crystal Chem Inc.).

[1] = Exposure during ipGTT in ob/ob mice; assay type: in vivo, mouse; details: sc injection
Protocol: as §5

[2] = Dog pharmacokinetic study; assay type: in vivo
Protocol: The pharmacokinetic parameters of the Compounds of SEQ ID NO: 9, 118, 151 and 158 were determined in male beagle dogs (n=3-4, 14±1 kg). Following an overnight fast, each animal received the Compounds of SEQ ID NO: 9, 118, 151 and 158 either as an intravenous bolus via femoral vein (67 μg/kg) or by subcutaneous injection given at near the shoulder blades (67 μg/kg). Each animal received both intravenous and subcutaneous doses with a one-week washout between doses following a crossover design. The dosing vehicle for both routes of administration was propylene glycol:pH 7.4 phosphate buffer (50:50) or 0.2 M Tris (pH 8.0). Serial blood samples were collected in EDTA-containing microcentrifuge tubes at predose, 0.083, 0.25, 0.5, 0.75, 1, 2, 4, 6, 8, 24, and 30 hours post-dose after intravenous administration; at predose, 0.25, 0.5, 0.75, 1, 2, 4, 6, 8, 24, and 30 hours post-dose after subcutaneous administration. Approximately 0.3 mL of blood was collected at each time point. Blood samples were immediately centrifuged at 4° C. The obtained plasma was frozen with dry ice and stored at −20° C. Plasma drug levels were determined using the LC-MS/MS assay described below.
Plasma samples from the in vivo dog study were prepared for analysis by precipitating plasma proteins with two volumes of AcCN containing an internal standard. The samples were vortex mixed and the precipitated proteins were removed by centrifugation. The resulting supernatants were transferred to a 96-well plate and 10 μL were injected for TFC-LC/MS/MS analysis.
The TFC-HPLC system (Cohesive TX-1 Flux, Aria 2300 System) consisted of a loading pump, an eluting pump, and a CTC PAL autosampler (Cohesive Technologies, Franklin, Mass.). The columns used were Phenomenex Synergi Fusion-RP (C18, 2.0×50 mm, 4μ) (Phenomenex, Torrance, Calif.) as the analytical column and Turbo-Flow (TF) HTLC Cyclone column (0.5×50 mm) (Cohesive Technologies, Franklin, Mass.) as the extraction column for on-line sample processing. The mobile phase A consisted of 10 mM ammonium formate and 0.1% formic acid in water and mobile phase B consisted of 0.1% formic acid in AcCN. Turbo-Flow Chromatography was used to obtain a cleaner sample. A rapid gradient elution was used for analyte separation. The samples were injected onto the Turbo-Flow HTLC Cyclone column and analytes were separated from biological fluid components with using 100% H2O at 1.5 mL/min. The TF column was back flushed and analytes were back eluted from the TF to HPLC analytical column using a ramp to 60% B over 2 min and held there for 30 seconds at 0.3 mL/min to separate and to elute the analytes from the HPLC column into the mass spectrometer. Both columns were washed for an additional minute and then both columns were re-equilibrated at initial conditions.
The HPLC was interfaced to a Sciex API 4000 mass spectrometer (Applied Biosystems, Foster City, Calif.) and was equipped with a TurboIonspray ionization source. Ultra high purity nitrogen was used as the nebulizing and turbo-gas. The temperature of turbo-gas was set at 300° C. and the interface heater was set at 60° C. Selected Reaction Monitoring (SRM) was used for data acquisition. Multiple charged ion species, i.e. (M+2H)^2+ for Compound of SEQ ID NO: 158 were selected in Q1 and were collisionally dissociated with high purity nitrogen at a pressure of 3.5×10^−3 torr in Q2 to form specific product ions which were subsequently monitored in Q3. The ion transitions and voltages are summarized below (Table 4).
The standard curve concentrations, ranging from 1 to 1000 nM, were analyzed in duplicate. The curves were fitted with a linear regression weighted by reciprocal concentration […]. Quality control (QC) samples, prepared in blank matrix at the same concentrations as the standards were also analyzed in each analytical set. […]

T1 sequence (P43220 24-463): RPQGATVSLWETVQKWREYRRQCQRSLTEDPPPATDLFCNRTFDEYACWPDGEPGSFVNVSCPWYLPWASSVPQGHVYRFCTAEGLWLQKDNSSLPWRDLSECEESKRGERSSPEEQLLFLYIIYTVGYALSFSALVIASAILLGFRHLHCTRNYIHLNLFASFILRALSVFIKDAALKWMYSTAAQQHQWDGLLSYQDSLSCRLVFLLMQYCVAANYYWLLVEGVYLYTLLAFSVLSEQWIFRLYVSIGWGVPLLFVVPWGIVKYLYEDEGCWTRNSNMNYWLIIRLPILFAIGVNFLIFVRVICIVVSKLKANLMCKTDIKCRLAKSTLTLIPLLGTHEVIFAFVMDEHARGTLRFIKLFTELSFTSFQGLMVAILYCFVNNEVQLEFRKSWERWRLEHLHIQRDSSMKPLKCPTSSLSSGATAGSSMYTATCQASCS

- EC50 (Human GLP-1 Receptor): 0.018 nM
- Emax (Human GLP-1 Receptor; CHO, percent of maximal GLP-1 stimulated activity, human GLP-1 receptor): 101 ± 6.7%
- Mean Hill (Human GLP-1 Receptor; human GLP-1 receptor): 1.5
- Mean Hill (Mouse GLP-1 Receptor): 1.5
- Emax (Mouse GLP-1 Receptor; CHO, percent of maximal GLP-1 stimulated activity): 101 ± 7.2%
- Exposure/dose during ipGTT in ob/ob mice [1]: 11 nM * h/nmol/kg
- Vd ([2]; dog, plasma, 67 ug/kg, male beagle dogs, intravenous 67 μg/kg, read-out: Vss): 0.15 ± 0.02 L/kg
- Exposure in dogs (sc@67 μg/kg) ([2]; sc 67 μg/kg, vehicle 0.2 M Tris buffer (pH 8.0)): 1.467 µM·h
Structure (SMILES): CCc1cc(O)ccc1-c1ccc(C[C@H](NC(=O)[C@H](CC(=O)O)NC(=O)[C@H](CO)NC(=O)[C@@H](NC(=O)C(C)(Cc2ccccc2F)NC(=O)[C@@H](NC(=O)CNC(=O)[C@H](CCC(=O)O)NC(=O)C2(C)CCCN2C(=O)[C@H](Cc2c[nH]cn2)NC(=O)OC)[C@@H](C)O)[C@@H](C)O)C(=O)N[C@@H](Cc2ccc(-c3ccccc3C)nc2)C(N)=O)cc1 (some centres unmarked) [SEQ ID NO: 158] (Moc-H[ξαMeP]EGT[ξαMePhe(2-F)]TSD[Phe(4-(2-Et-4-HO-Ph))][Ala(6-(2-MePh)pyridin-3-yl)]-NH2)
- plasma glucose AUC decreased (ob/ob mice; 10 nmol/kg sc, ipGTT ob/ob mice): 66%
- Potency in ob/ob mice ED50 (ob/ob mice; sc injection, plasma glucose AUC in ipGTT): ED50 = 2 nmoles/kg
- effect on postprandial plasma glucose (ob/ob mice; sc, ipGTT ob/ob mice, 0 to 180 or 210 min): statistically significant decrease
